Results: patent US10933141B2, “Formulations with reduced degradation of polysorbate” (Genentech, Inc., priority 2015, dated 2021)
“Also recorded” adds a separate entry of the source.

Experiments:
[1] = target: T1, porcine pancreatic lipase (PPL) (Sus scrofa, UniProt P00591); assay: Enzymatic degradation of PS20 by PPL, 4.5 hour digestion, PS20 by RP-ELSD; format: biochemical; conditions: 0.02% PS20; 15 μg/mL PPL 4.5 hours; excipient 15% w/v (methionine 10 mg/mL)
T1 construct: purchased Sigma Aldrich Inc. (St. Louis, Mo.)
T1 sequence (P00591 1-450): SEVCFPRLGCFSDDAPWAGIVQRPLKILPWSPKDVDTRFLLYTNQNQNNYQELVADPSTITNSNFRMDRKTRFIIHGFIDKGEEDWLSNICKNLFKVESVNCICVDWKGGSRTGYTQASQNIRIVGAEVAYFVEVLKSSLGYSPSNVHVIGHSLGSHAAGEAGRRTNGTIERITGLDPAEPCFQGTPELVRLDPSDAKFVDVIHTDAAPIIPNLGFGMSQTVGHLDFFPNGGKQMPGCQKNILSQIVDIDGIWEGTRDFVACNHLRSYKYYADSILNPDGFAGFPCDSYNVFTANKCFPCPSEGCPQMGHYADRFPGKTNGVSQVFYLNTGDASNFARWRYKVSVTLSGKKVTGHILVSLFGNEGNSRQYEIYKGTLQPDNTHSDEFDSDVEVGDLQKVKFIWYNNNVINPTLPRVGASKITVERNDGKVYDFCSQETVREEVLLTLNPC
Method: Polysorbate concentration was determined using reverse phase ultra-performance liquid chromatography using evaporative light scattering detection (RP-ELSD). Samples were analyzed using an Agilent 1100 series high performance liquid chromatography system (HPLC) fitted with a Waters Oasis MAX cartridge column (20×2.1 mm, 30 μm particle size). The HPLC system was set up with a switching valve directing column flow-through to either waste or a Varian 380-LC evaporative light scattering detector set to 100° C. The mobile phases consisted of 2% formic acid in water (Pump A) and 2% formic acid in isopropanol (Pump B). The pump gradient was isocratic at 10% pump B during equilibration, linear to 20% pump B for 1 minute, isocratic at 20% pump B for 2.4 minutes, linear to 100% pump B for 0.1 minutes, isocratic at 100% pump B for 1.1 minutes, linear to 10% pump B for 0.1 minutes, and finally isocratic at 10% pump B for 1.9 minutes. The switching valve directed column flow-through to waste at the beginning of every injection, and then directed flow to the detector after 2.4 minutes until the end of the gradient. In order to quantitate the PS20 concentration, a standard curve was generated by injecting 20 μL of solutions containing between 0% w/v and 0.4% w/v PS20.
(§1) Several excipients were tested for their ability to protect PS20 against enzymatic hydrolysis including HP-α-CD, HP-β-CD, HP-γ-CD, SBE-β-CD, PVP, PEG 1500, sucrose, and methionine. Solutions of each excipient in pH 5.5 buffer were prepared containing a final concentration of 0.02% PS20 after enzyme addition. The concentration of HP-α-CD, HP-β-CD, HP-γ-CD, and SBE-β-CD in the excipient solutions was 106 mM. […] The remaining excipients (PVP, PEG 1500, sucrose) were added to 15% w/v to match the % w/v of HP-β-CD. Samples were digested with 15 μg/mL PPL enzyme for 4.5 hours at room temperature, followed by 30 minutes of heat inactivation at 85° C. Each sample was analyzed for PS20 concentration using high performance liquid chromatography with an inline evaporative light scattering detector. Samples were then placed at 5° C. overnight to allow for the formation of particles and were analyzed for visible and subvisible particles as described previously.
(§2) The effect of the HP-β-CD concentration at different PS20 concentrations on the enzymatic degradation of PS20 was assessed to identify optimal concentrations for inhibition of enzymatic PS20 degradation. To evaluate the dependence of PS20 degradation on HP-β-CD concentration, the PS20 content was determined using RP-ELSD for triplicate samples containing different HP-β-CD concentrations at various PS20 concentrations. Samples containing 0.005% (FIG. 14A), 0.02% (FIG. 14B), 0.1% (FIG. 14C), and 0.4% PS20 (FIG. 14D) were digested using 15 μg/mL of PPL enzyme for 4.5 hours at room temperature in protein-free samples containing no excipient (control), 0, 0.5, 5, and 15% (w/v) HP-β-CD. PPL was added to each of the treatment solutions at a ratio of 75 […], with an equivalent volume of buffer added to the control solutions to determine the effect of HP-β-CD to polysorbate ratio on enzymatic degradation. Digestion was stopped by heat inactivation in an 85° C. water bath for 30 minutes. Each sample was analyzed for PS20 concentration using high performance liquid chromatography with an inline evaporative light scattering detector as described above. Samples were then placed at 5° C. overnight to allow for the formation of particles and placed on ice during analysis for visible and subvisible particles as described above.

[2] = target: T1, porcine pancreatic lipase (PPL); assay: Subvisible particle formation after PPL digestion of PS20 (HIAC); format: physicochemical; conditions: 0.02% PS20; 15 μg/mL PPL 4.5 hours, then 5° C. overnight; excipient 15% w/v (methionine 10 mg/mL)
Method: Subvisible particles were measured using a HIAC 9703 particle counter equipped with an HRDL-150 detector and a 1 mL syringe. Performance of the instrument was verified with NIST-traceable 2 μm Polystyrene bead standards at 3000 counts/mL before each measurement session. The HIAC instrument was configured to a 10 mL/min flow rate, 0.1 mL tare volume, and 0.4 mL sample volume. The samples were analyzed using 4 runs of 0.4 mL sips, with the first run of each sample was discarded to prevent measurement error due to sample carryover. Results were reported as the average values for 1.4, 2, 5, 10, 15, and 25, 50 μm analysis filter sizes.
as §1, §2

effect on SVP formation (in words) [2]	Compound	inhibitory effect on enzymatic PS20 degradation (in words) [1]
did not have an inhibitory effect	CSCC[C@H](N)C(=O)O [methionine, reference compound]	did not have an inhibitory effect
significant inhibitory effects	sulfobutyl ether β-cyclodextrin [SBE-β-CD]	significant inhibitory effects; also recorded: able to prevent enzymatic degradation of PS20
